Data on 6 compounds can be found in patent publication US5175180A, “N-substituted N-(alpha-triazolyl-toluyl)pyrrole compounds and use for treatment of circulatory disorders” (G. D. Searle & Co., priority 1990, dated 1992).

The conditions of test [1]: result in words, prior art; cited from earlier work.
Another test concerns angiotensin II. Particulars: result in words, prior art; cited from earlier work.
For test [2], the target named is smooth muscle angiotensin II receptor. Kind of test: Assay A: Angiotensin II Binding Activity (displacement of 125I-angiotensin II, rat uterine membrane preparation). Particulars: 50% displacement of specifically bound 125I-AII; rat uterine membranes, 25° C., 60 min, pH 7.5. Here is the method:
Compounds of the invention were tested for ability to bind to the smooth muscle angiotensin II receptor using a rat uterine membrane preparation. […] Other chemicals were obtained from Sigma Chemical Co. This assay was carried out according to the method of Douglas et al [Endocrinology, 106, 120-124 (1980)]. Rat uterine membranes were prepared from fresh tissue. All procedures were carried out at 4° C. Uteri were stripped of fat and homogenized in phosphate-buffered saline at pH 7.4 containing 5 mM EDTA. The homogenate was centrifuged at 1500×g for 20 min., and the supernatant was recentrifuged at 100,000×g for 60 min. The pellet was resuspended in buffer consisting of 2 mM EDTA and 50 mM Tris-HCl (pH 7.5) to a final protein concentration of 4 mg/ml. […] The reaction was initiated by the addition of membrane protein and the mixture was incubated at 25° C. for 60 min. The incubation was terminated with ice-cold 50 mM Tris-HCl (pH 7.5) and the mixture was filtered to separate membrane-bound labelled peptide from the free ligand. The incubation tube and filter were washed with ice-cold buffer. Filters were assayed for radioactivity in a Micromedic gamma counter. […] Specific binding was calculated as total binding minus nonspecific binding. […] Binding data were analyzed by a nonlinear least-squares curve fitting program.
Background: Displacement assays read how much labelled ligand stays bound in the presence of the test substance.

For test [3], the target named is T1, rabbit aortic rings (angiotensin II response) (Oryctolagus cuniculus, UniProt P34976).
T1 construct: The thoracic aorta was removed, cleaned of adherent fat and connective tissue; from tissue; host or cells: thoracic aorta rings without endothelium, male New Zealand white rabbit
T1 sequence (P34976 1-359): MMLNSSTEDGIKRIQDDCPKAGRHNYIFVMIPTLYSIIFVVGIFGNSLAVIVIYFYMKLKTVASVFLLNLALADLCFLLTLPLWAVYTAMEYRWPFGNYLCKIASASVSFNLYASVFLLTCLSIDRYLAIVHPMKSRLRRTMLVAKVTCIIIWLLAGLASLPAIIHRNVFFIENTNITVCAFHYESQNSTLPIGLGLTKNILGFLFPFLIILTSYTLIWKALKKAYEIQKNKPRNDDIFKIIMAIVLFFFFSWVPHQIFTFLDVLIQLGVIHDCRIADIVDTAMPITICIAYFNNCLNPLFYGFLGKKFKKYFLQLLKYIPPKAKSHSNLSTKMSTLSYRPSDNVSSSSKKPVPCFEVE
Kind of test: Assay B: In Vitro Vascular Smooth Muscle Response for AII (aortic rings). It counts as cell-based, rabbit (male New Zealand white). Here is the method: The compounds of the invention were tested for antagonist activity in rabbit aortic rings. Male New Zealand white rabbits (2-2.5 kg) were sacrificed using an overdose of pentobarbital and exsanguinated via the carotid arteries. The thoracic aorta was removed, cleaned of adherent fat and connective tissue and then cut into 3-mm ring segments. The endothelium was removed from the rings by gently sliding a rolled-up piece of filter paper into the vessel lumen. The rings were then mounted in a water-jacketed tissue bath, maintained at 37° C., between moveable and fixed ends of a stainless steel wire with the moveable end attached to an FTO3 Grass transducer coupled to a Model 7D Grass Polygraph for recording isometric force responses. The bath was filled with 20 ml of oxygenated (95% oxygen/5% carbon dioxide) Krebs solution of the following composition (mM): 130 NaCl, 15 NaHCO3, […], 1.2 NaH2 PO4, 1.2 MgSO4, 2.5 CaCl2, and 11.4 glucose. The preparations were equilibrated for one hour before approximately one gram of passive tension was placed on the rings. Angiotensin II concentration-response curves were then recorded (3×10^-10 to 1×10^-5 M). […] The effectiveness of the test compound was expressed in terms of pA2 values and were calculated according to H. O. Schild [Br. J. Pharmacol. Chemother., 2, 189-206 (1947)]. […] Each test antagonist was evaluated in aorta rings from two rabbits.

Test [4] has as its system angiotensin II pressor response. Kind of test: Assay C: In Vivo Intraduodenal Pressor Assay Response for AII Antagonists. Particulars: 30 mg/kg i.d., average of two rats. The arrangement: species or system rat (male Sprague-Dawley). How it is done:
Angiotensin II injections were then given 5, 10, 20, 30, 45, 60, 75, 90, and 120 minutes after administration of the test compound and response of arterial pressure was monitored. […] Duration of action of a test compound was defined as the time from peak percent inhibition to 50% of peak.

Broadly, the IC50 is the point on the concentration scale where inhibition reaches its midpoint. A lower IC50 goes with greater potency in that assay. In general, Inhibition refers to the percentage by which the read-out fell short of the control. Read a high Inhibition as a strong effect.

Where two headings read alike, the source gives them in different places.

As to `Cc1ccc(C(c2ccc(-n3cccc3)cc2)n2cncn2)cc1` (stereo not shown) [1-[(4-methylphenyl)[4-(1H-pyrrol-1-yl)phenyl]methyl]-1H-1,2,4-triazole], the “antibacterial and antifungal properties” value in test [1] was “antibacterial and antifungal properties”.
As for `CCCCc1nc(Cl)c(CC(=O)O)n1Cc1ccccc1Cl` [2-n-butyl-4-chloro-1-(2-chlorobenzyl)imidazole-5-acetic acid], the “angiotensin II antagonist activity” value in the test on angiotensin II was “specific competitive angiotensin II antagonist activity”.
In the case of `CCCCc1nc(Cl)c(CC(=O)O)n1Cc1ccccc1[N+](=O)[O-]` [(2-butyl-4-chloro-1-(2-nitrobenzyl)imidazole-5-acetic acid], the “angiotensin II antagonist activity” value with angiotensin II is listed as “specific competitive angiotensin II antagonist activity”.
Turning to `CCCCc1nc(CCCC)n(Cc2ccc(-n3c(Br)ccc3-c3nnn[nH]3)cc2)n1` [Example 3, 5-[1-[4-[(3,5-di-n-butyl-1H-1,2,4-triazol-1-yl)methyl]phenyl]-5-bromo-1H-pyrrol-2-yl]-1H-tetrazole], the 50% inhibitory concentration (IC50) in test [2] is 110 nM. Besides, in test [3] (rabbit aortic rings, 37° C., antagonist 5 min before AII challenge, two rabbits, Schild, read-out: pA2 (converted)), the Kb was 9.55 nM.
In test [2], `CCCCc1nc(CCCC)n(Cc2ccc(-n3c(Cl)cc(Cl)c3-c3nnn[nH]3)cc2)n1` [Example 5, 5-[1-[4-[(3,5-dibutyl-1H-1,2,4-triazol-1-yl)methyl]phenyl]-3,5-dichloro-1H-pyrrol-2-yl]-1H-tetrazole] returned a 50% inhibitory concentration (IC50) of 52 nM. Moreover, in test [4] (percent inhibition of AII pressor response, AII 30 ng/kg i.v., ganglion-blocked anesthetized rats), the Inhibition was 85%. Besides, in test [4] (time from peak percent inhibition to 50% of peak), the Duration stood at 75 min. The Kb in test [3] was 20 nM.
Consider `CNCC(=O)N[C@@H](CCCN=C(N)N)C(=O)N[C@H](C(=O)N[C@@H](Cc1ccc(O)cc1)C(=O)N[C@H](C(=O)N[C@@H](Cc1cnc[nH]1)C(=O)N1CCC[C@H]1C(=O)N[C@@H](C)C(=O)O)C(C)C)C(C)C` [Saralasin], for which the “angiotensin II antagonist activity” value with angiotensin II is recorded as “significant residual antagonist activity”.
